pIC50: −log10 of the molar value. “Also recorded” adds a separate entry of the source. Read-outs that look alike come from different tables or passages of the source. A value given as a limit tells only on which side of the number the result lay.

By pIC50 is commonly meant −log10 of the IC50, conventionally taken in molar units. Broadly, the inhibition is the change of the read-out against control, counted positive when it falls.

One series has as its target T1, JAK1 (Homo sapiens, UniProt P23458).
T1 construct: purchased Reaction Biology Corp, Malvern, PA (contract testing)
In words: JAK1 biochemical test (33P-ATP filter binding, Reaction Biology). The note with it: read-out: Inhibition of JAK1 (IC50). Here is the method: (§1) The tests were conducted by Reaction Biology Corp, Malvern, PA (Anastassiadis et al. Nat Biotechnol. 2011; 29(11):1039-45). The step is briefly described as follows, using the basic reaction buffer: 20 mM Hepes (pH 7.5), 10 mM MgCl2, 1 mM EGTA, 0.02% Brij35, 0.02 mg/ml BSA, 0.1 mM Na3VO4, 2 mM DTT and 1% DMSO. The required cofactor was added to each kinase reaction respectively. Each reaction was performed according to the following reaction steps: 1) Preparing the designated substrate in the newly prepared basic reaction buffer; 2) Transferring the required cofactor to the above matrix solution; 3) Transferring the designated kinase to the substrate solution and mixing well slightly; 4) Transferring a compound of Formula (I) in DMSO to the kinase reaction mixture with Acoustic technique (Echo550; nanoliter range), culturing for 20 minutes at room temperature; 5) Introducing ^33P-ATP (specific activity: 10 μCi/μl) to the reaction mixture to trigger a reaction; 6) Culturing at room temperature and conducting a kinase reaction for 2 hours; 7) Plotting the reaction on P81 ion exchange paper; and 8) Testing the kinase activity with a filter binding assay. The results shown in Table 1 indicate that compounds of Formulae (I)-(III) are potent and selective TYK2/JAK1 inhibitors.

A short description of series [1]: Brain penetration in rats. The note with it: male, rat, 10 mg/kg oral gavage, 8 hour post-dosing. The series is classed as in vivo. How it is done:
This testing was performed to test the ability of compounds to penetrate the blood-brain-barrier in rats. The testing was performed according to the following procedure: 1) For each compound, take 3 male rats with body weight of 217-228 g, formulate compound using 0.5% HPMC/water suspension at concentration of 1 mg/ml; 2) After fasting overnight, administer compound at 10 mg/kg by oral gavage; 3) Take plasma samples at 1, 2, 4, 8 hours post-dosing; 4) At 8 hour post-dosing, also take brain tissues and cerebrospinal fluid (CSF); 5) Analyze compound concentration in plasma, brain tissue, and CSF using LC-MS/MS method.

The next series addresses T2, TYK2 (Homo sapiens, UniProt P29597).
T2 construct: purchased Reaction Biology Corp, Malvern, PA (contract testing)
In words: TYK2 biochemical test (33P-ATP filter binding, Reaction Biology). The settings on record: read-out: Inhibition of TYK2 (IC50). How it is done:
as §1

Series [2] relates to BV2 cells. In words: IL-6, TNF and MCP-1 production in LPS-stimulated BV2 cells (CBA assay). The series is classed as cell-based. The note with it: Mus musculus, BV-2, LPS-treated BV2 cells.
The next series deals with T3, JAK2 (Homo sapiens, UniProt O60674).
T3 construct: purchased Reaction Biology Corp, Malvern, PA (contract testing)
T3 sequence (O60674 whole entry): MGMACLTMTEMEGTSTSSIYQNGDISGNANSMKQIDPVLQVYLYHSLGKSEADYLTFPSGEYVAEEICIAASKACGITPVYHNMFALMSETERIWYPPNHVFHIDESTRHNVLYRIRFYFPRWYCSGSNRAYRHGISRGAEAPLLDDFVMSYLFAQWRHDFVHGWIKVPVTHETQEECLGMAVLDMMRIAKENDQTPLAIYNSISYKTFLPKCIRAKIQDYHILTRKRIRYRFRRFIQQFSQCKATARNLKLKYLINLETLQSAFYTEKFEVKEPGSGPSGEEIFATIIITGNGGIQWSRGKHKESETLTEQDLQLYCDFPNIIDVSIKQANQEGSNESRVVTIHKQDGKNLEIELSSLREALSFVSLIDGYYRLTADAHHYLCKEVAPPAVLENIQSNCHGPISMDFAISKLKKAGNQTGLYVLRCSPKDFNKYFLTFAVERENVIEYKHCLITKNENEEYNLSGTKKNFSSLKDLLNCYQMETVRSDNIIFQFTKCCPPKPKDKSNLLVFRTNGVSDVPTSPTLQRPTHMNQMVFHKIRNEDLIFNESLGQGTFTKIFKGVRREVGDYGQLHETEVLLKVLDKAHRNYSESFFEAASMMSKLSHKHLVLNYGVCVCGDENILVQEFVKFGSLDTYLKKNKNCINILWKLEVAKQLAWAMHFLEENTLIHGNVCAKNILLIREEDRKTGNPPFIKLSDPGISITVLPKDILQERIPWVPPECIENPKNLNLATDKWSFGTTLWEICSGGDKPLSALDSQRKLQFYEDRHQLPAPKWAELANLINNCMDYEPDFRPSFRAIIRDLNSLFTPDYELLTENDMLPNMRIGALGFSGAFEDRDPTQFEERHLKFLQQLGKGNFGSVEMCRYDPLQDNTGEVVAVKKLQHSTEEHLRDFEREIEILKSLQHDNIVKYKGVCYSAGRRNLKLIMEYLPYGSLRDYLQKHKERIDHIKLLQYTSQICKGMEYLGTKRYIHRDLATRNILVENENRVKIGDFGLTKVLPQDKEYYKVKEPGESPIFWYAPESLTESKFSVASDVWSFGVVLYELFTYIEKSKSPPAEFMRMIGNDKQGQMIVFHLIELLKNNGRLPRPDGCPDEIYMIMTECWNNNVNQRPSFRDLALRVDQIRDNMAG
Put plainly: JAK2 biochemical test (33P-ATP filter binding, Reaction Biology). The settings on record: read-out: Inhibition of JAK2 (IC50). How it is done: as §1

The subject of a further series is HT22 cells. Put plainly: HT22 neuronal cell death induced by LPS activated BV2 microglia (transwell co-culture). The series is classed as cell-based. The note with it: 1.7 μM pre-treatment of BV2, LPS 200 ng/ml, 96 h. Here is the method:
(§2) This testing was performed to test the ability of compounds to alleviate the injury of HT22 cells induced by LPS activated BV2 cells. The testing was performed according to the following procedure: 1) Microglia BV2 cells were co-cultured on transwell inserts with HT22hippocampal neurons. BV2 cells were stimulated with LPS (200 ng/ml) for 96 h after treatment with a compound of Formula (II) at 1.7 μM. 2) HT22 cells were pre-treated with a compound of Formula (II) at 1.7 μM for 30 min and subsequently stimulated with LPS (200 ng/ml) for 96 h. 3) BV2 cells were treated using LPS. IL-6, TNF and MCP-1 productions were measured in cell supernatants using CBA assay.
The protective effects of a compound of Formula (II) on microglial activation-induced neuronal death were evaluated in a BV2 microglia/HT22 neuron co-culture. Following stimulation of BV2 microglia with LPS (200 ng/mL), there was a marked reduction in the viability of co-cultured HT22 cells.

Series [3] deals with BV2 cells. In words: IL-6, TNF and MCP-1 production in LPS-stimulated BV2 cells (CBA assay). The series is classed as cell-based. The settings on record: for inhibition at 1.7 µM: Mus musculus, BV-2, LPS-treated BV2 cells. Here is the method: as §2
In LPS-treated BV2 cells, there was a marked increase in IL-6, TNF and MCP-1 production, when compared to unstimulated cells.

Where [4] appears, read: read-out: Inhibition of IL-6 production.
[5] abbreviates: read-out: Inhibition of MCP-1 production.
Setting [6] is: read-out: Inhibition of TNF production.

T1 sequence (P23458 whole entry): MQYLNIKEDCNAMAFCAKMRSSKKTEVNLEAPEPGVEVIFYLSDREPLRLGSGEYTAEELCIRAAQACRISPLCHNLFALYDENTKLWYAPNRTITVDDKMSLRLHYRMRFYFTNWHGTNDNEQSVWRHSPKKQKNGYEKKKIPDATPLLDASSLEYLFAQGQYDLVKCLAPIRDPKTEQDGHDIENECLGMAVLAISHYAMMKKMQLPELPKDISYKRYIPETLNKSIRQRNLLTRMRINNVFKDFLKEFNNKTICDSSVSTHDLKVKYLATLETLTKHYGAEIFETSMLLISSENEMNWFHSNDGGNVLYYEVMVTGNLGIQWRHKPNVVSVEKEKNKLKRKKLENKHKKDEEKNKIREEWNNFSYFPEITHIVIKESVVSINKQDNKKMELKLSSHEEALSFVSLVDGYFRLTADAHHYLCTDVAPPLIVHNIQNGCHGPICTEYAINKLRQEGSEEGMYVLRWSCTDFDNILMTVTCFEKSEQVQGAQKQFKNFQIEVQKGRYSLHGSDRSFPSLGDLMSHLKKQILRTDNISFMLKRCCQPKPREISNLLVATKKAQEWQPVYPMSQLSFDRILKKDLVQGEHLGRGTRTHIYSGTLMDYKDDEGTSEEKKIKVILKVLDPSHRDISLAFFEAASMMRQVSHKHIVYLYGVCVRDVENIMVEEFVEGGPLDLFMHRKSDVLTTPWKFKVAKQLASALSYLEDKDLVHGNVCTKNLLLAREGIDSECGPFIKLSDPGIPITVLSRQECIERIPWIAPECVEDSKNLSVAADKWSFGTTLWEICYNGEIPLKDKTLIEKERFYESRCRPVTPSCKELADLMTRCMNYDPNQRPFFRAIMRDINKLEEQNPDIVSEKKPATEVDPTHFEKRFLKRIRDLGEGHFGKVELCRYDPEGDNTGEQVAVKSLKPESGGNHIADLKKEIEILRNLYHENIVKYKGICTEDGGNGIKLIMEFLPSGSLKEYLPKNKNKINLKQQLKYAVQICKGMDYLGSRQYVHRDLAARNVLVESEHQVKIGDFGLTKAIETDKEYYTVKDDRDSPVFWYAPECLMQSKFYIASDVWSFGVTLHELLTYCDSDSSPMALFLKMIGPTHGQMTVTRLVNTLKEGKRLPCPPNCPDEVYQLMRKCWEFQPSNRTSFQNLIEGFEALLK
T2 sequence (P29597 whole entry): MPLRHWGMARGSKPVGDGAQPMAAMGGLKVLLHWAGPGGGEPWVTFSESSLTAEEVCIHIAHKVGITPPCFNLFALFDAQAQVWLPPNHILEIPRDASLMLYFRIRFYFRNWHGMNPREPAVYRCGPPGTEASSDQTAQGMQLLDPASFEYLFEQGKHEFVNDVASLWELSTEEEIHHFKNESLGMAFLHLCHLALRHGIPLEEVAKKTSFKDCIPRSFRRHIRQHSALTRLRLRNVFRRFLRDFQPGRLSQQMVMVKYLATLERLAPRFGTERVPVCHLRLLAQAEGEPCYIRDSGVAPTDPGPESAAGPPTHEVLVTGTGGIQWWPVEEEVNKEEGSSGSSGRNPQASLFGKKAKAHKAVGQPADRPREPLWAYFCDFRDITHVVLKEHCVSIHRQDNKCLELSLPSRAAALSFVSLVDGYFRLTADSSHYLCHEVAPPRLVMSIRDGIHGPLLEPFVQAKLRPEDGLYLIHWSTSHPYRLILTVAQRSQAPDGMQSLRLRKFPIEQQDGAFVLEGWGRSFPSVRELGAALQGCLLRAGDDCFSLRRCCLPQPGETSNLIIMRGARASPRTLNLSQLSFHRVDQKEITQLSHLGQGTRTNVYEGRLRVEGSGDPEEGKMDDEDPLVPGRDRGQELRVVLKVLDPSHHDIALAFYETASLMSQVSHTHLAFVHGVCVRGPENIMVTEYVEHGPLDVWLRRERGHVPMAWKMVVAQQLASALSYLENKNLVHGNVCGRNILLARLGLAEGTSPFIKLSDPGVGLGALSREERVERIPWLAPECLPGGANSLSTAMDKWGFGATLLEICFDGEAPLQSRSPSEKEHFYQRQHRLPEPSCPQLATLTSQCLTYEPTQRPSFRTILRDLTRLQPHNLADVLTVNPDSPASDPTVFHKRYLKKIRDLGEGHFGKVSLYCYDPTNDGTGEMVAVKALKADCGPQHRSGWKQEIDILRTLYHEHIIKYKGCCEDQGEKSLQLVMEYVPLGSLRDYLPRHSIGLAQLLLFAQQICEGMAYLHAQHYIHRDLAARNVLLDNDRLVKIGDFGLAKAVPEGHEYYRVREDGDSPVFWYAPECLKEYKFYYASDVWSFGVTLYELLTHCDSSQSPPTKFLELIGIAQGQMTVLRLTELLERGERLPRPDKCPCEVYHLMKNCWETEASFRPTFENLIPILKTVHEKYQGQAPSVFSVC

For the compound `Cc1nc2cnc3ccoc3c2n1[C@H]1CC[C@H](CC#N)OC1` [Formula (II)], the negative logarithm of the IC50 (pIC50) at JAK1 is > 8.00; on TYK2 it was > 8.00; on JAK2, < 7.00. The Kp at 8 h is > 0.15 in series [1] (CSF/plasma, read-out: CSF (ng/ml)/ Plasma (ng/ml)) and > 0.4 in series [1] (brain/plasma, read-out: Brain (ng/ml)/ Plasma (ng/ml)). The figures for the inhibition at 5 µM in the series on BV2 cells [2] (setting [4]), in the series on BV2 cells [2] (setting [5]) and in the series with BV2 cells [2] (setting [6]) were 72.4%, 83.3% and 81.2%, respectively. Also, the inhibition at 15 µM in the series on BV2 cells [2] (setting [4]) worked out at 83.6%; in the series on BV2 cells [2] (setting [5]) it was 111%; in the series with BV2 cells [2] (setting [6]), 118%. For the same compound, the “Toxicity to HT22 cells (neuronal cell death) from LPS stimulation of BV2 microglia” value with HT22 cells is given as “significantly reduced toxicity to HT22 cells; also recorded: reduced HT22 neuronal cell death”. The “IL-6, TNF and MCP-1 production (in words)” value in the series on BV2 cells [3] (LPS-stimulated BV2 cells, pre-treatment) was “dose-dependently reduced; also recorded: inhibited”. In addition, the inhibition at 1.7 µM in the series on BV2 cells [3] (setting [4]) came out at 49.1%; with BV2 cells [3] (setting [5]) it was 56.9%; in the series with BV2 cells [3] (setting [6]), 39.9%.

The values are drawn from US20250032465A1, “METHODS OF TREATING CNS DISORDERS” (HANGZHOU HIGHLIGHTLL PHARMACEUTICAL CO., LTD, priority 2021, published 2025).
